In patent US20140357512A1, “HISTONE DEACETYLASE (HDAC) BIOMARKERS IN MULTIPLE MYELOMA” (priority 2013, published 2014):

Tested on: human myeloma cell line MM.1S
Test: SILAC acetylated-lysine peptide profiling, HDAC inhibitor vs DMSO (light/heavy ratio)
Format: cell-based
From the text: An embodiment of the invention comprises utilizing the SILAC method in order to quantitate changes in protein expression between two or more populations of cells. The SILAC method is a technique based on mass spectrometry that detects differences in protein abundance among samples using non-radioactive isotopic labeling. The SILAC method is known in the art, and described in detail in Ong et al., “Stable Isotope Labeling by Amino Acids in Cell Culture, SILAC, as a Simple and Accurate Approach to Expression Proteomics”, Molecular & Cellular Proteomics, vol. 1, pp. 376-386 (2002), which is incorporated herein by reference in its entirety.
Briefly, the SILAC method involves growing two populations of cells in cell culture. The first population of cells is grown in growth media containing normal amino acids (“normal media”). The second population of cells is grown in media lacking a standard essential amino acid (such as lysine), but is then supplemented with a non-radioactive, isotopically labeled form of that essential amino acid (such as lysine labeled with ^13C atoms, rather than normal ^12C atoms), which is called “heavy media”. When the two populations of cells are each growing in the medium, they incorporate the amino acids into all of their proteins. The growth of cells maintained in the heavy media is no different from that in normal media. All peptides containing the heavy amino acids are heavier than their normal counterparts. The cells from each of the two populations of cells are lysed. The lysates from each of the two cell populations are then combined. The combined cell lysates are then analyzed by mass spectrometry. Pairs of chemically identical peptides of different stable isotope composition can be differentiated in a mass spectrometer due to their difference in mass. The ratio of peak intensities in the mass spectrum for such peptide pairs reflects the abundance ratio for the two proteins.
This example describes SILAC studies that were performed to compare the effects of three different HDAC inhibitors (Compound A, Compound B, and tubastatin A) to a control on a human multiple myeloma cell line. The HDAC inhibitors were also compared amongst themselves to determine differences in their effects.
A human myeloma cell line MM.1S was grown using either ^12C (light) or ^13C (heavy) lysine containing culture medium. The “heavy” cells were treated with DMSO as the control, and the “light” cells were treated with a single HDAC inhibitor at 37° C. for 6 hours. The heavy and light cells were lysed, and the lysates were mixed in 1:1 ratio and digested with the protease trypsin. The acetylated lysine containing peptides (due to the action of the HDAC inhibitor) in the digested peptide pool were captured by a non-specific anti-acetylated lysine antibody cocktail (the antibodies identify both light and heavy acetylated peptides), and subjected to mass spectrometry analysis in order to identify thousands of individual peptides.
Thousands of peptides were identified in pairs (^12C and ^13C) due to their known mass differences. The amino acid sequence and quantitative ratio (Light/Heavy) of a given peptide in two differentially treated cell lysates were then determined and annotated with their possible protein (gene) sources.
As stated above, three HDAC inhibitors (Compound A, Compound B, and Tubastatin A) were used. Thus, the SILAC method was performed three times, with a different HDAC inhibitor compared to a control each time. Accordingly, there are three pairs of quantitative data in the table below, i.e., Compound A:DMSO, Compound B:DMSO, and Tubastatin A:DMSO. A cut-off of 1.30 fold of change (increase or decrease) was then used to determine “changed” or “+” in the table, and any peptides with a fold of change less than 1.3 fold were determined to be “unchanged” or “0” in the table. Those peptides that were not identified were marked as “NA” in the table. […]

O=C(CCCCCCNC(=O)c1cnc(N(c2ccccc2)c2ccccc2)nc1)NO [Compound A, 2-(diphenylamino)-N-(7-(hydroxyamino)-7-oxoheptyl)pyrimidine-5-carboxamide]
light to heavy ratio (L/H ratio) of acetylated peptide GAGTDEK(ac)TLTR (SEQ ID NO: 621) (Annexin A6 [620], gene ANXA6, inhibitor:DMSO): 0.48 log 2 | light to heavy ratio (L/H ratio), log 2 scale, acetylated peptide EFIEK(ac)YDK (SEQ ID NO: 779) (Annexin A6 [644], gene ANXA6, drug:DMSO): 1.00 | light to heavy ratio (L/H ratio) of acetylated peptide DDNGK(ac)PYVLPSVR (SEQ ID NO: 579) (Aspartate aminotransferase mitochondrial [73], gene GOT2, inhibitor:DMSO): 0.43 log 2 | light to heavy ratio (L/H ratio) of acetylated peptide LMEK(ac)EINGSK (SEQ ID NO: 517) (Atlastin-3 [309], gene ATL3, inhibitor:DMSO): −0.56 log 2 | light to heavy ratio (L/H ratio) of acetylated peptide ELK(ac)EIQYGIR (SEQ ID NO: 540) (Branched-chain-amino-acid aminotransferase [337], gene BCAT2, inhibitor:DMSO): 0.39 log 2 | light to heavy ratio (L/H ratio), log 2 scale, acetylated peptide ESCSK(ac)[…] (SEQ ID NO: 780) (Bromodomain and PHD finger-containing protein 3 [105], gene BRPF3, drug:DMSO): 1.00 | L/H ratio of acetylated peptide FYGDEEK(ac)[…] (SEQ ID NO: 25) (CALR [62], log 2 scale, drug vs DMSO): 0.00 | light to heavy ratio (L/H ratio) of acetylated peptide LQVLDPVPK(ac)PVIK (SEQ ID NO: 539) (CD48 antigen [133], gene CD48, inhibitor:DMSO): 0.39 log 2 | light to heavy ratio (L/H ratio) of acetylated peptide AGLQVYNK(ac)CWK (SEQ ID NO: 260) (CD59 glycoprotein [63], CD59, drug:DMSO): 0.41 log 2 | L/H ratio of acetylated peptide […](ac)R (SEQ ID NO: 26) (CLTC [637], log 2 scale, drug vs DMSO): 0.00 | L/H ratio of acetylated peptide FK(ac)ESFAEMNR (SEQ ID NO: 1) (COX4I1 [87], log 2 scale, drug vs DMSO): 0.00 | L/H ratio of acetylated peptide […](ac)QLCTIPR (SEQ ID NO: 27) (CREBBP [1216], log 2 scale, drug vs DMSO): 0.00 | L/H ratio of acetylated peptide TNK(ac)NK(ac)SSISR (SEQ ID NO: 13) (CREBBP [1595:1597], log 2 scale, drug vs DMSO): 1.00 | L/H ratio of acetylated peptide ALK(ac)DLYCHK (SEQ ID NO: 28) (CREM [240], log 2 scale, drug vs DMSO): 0.00 | L/H ratio of acetylated peptide LYCPK(ac)CMDVYTPK (SEQ ID NO: 29) (CSNK2B [139], log 2 scale, drug vs DMSO): 0.00 | light to heavy ratio (L/H ratio) of acetylated peptide NSFDCFK(ac)K (SEQ ID NO: 605) (Calcium-binding mitochondrial carrier protein Aralar2 [379], gene SLC25A13, inhibitor:DMSO): 0.46 log 2 | light to heavy ratio (L/H ratio) of acetylated peptide FVLSSGK(ac)FYGDEEKDK (SEQ ID NO: 281) (Calreticulin [55], CALR, drug:DMSO): 0.58 log 2 | light to heavy ratio (L/H ratio) of acetylated peptide VHVIFNYK(ac)GK (SEQ ID NO: 273) (Calreticulin [151], CALR, drug:DMSO): 0.48 log 2 | light to heavy ratio (L/H ratio) of acetylated peptide NVLINK(ac)DIR (SEQ ID NO: 257) (Calreticulin [159], CALR, drug:DMSO): 0.39 log 2 | light to heavy ratio (L/H ratio) of acetylated peptide TCDLVGEK(ac)GK (SEQ ID NO: 289) (Cation-dependent mannose-6-phosphate receptor [38], M6PR, drug:DMSO): 0.65 log 2 | light to heavy ratio (L/H ratio) of acetylated peptide […](ac)GLLK (SEQ ID NO: 569) (Chloride intracellular channel protein 1 [131], gene CLIC1, inhibitor:DMSO): 0.41 log 2 | light to heavy ratio (L/H ratio), log 2 scale, acetylated peptide GFSIPECQK(ac)LLPK (SEQ ID NO: 783) (Citrate synthase mitochondrial [103], gene CS, drug:DMSO): 1.00 | light to heavy ratio (L/H ratio) of acetylated peptide […](ac)LR (SEQ ID NO: 566) (Citrate synthase mitochondrial [327], gene CS, inhibitor:DMSO): 0.41 log 2 | light to heavy ratio (L/H ratio) of acetylated peptide EFALK(ac)HLPNDPMFK (SEQ ID NO: 583) (Citrate synthase mitochondrial [366], gene CS, inhibitor:DMSO): 0.43 log 2 | light to heavy ratio (L/H ratio) of acetylated peptide SMSTEGLMK(ac)FVDSK (SEQ ID NO: 330) (Citrate synthase mitochondrial [459], CS, drug:DMSO): 0.00 log 2 | light to heavy ratio (L/H ratio) of acetylated peptide VASK(ac)QLEEEDGSR (SEQ ID NO: 591) (Coatomer subunit gamma [238], gene COPG, inhibitor:DMSO): 0.44 log 2 | light to heavy ratio (L/H ratio), log 2 scale, acetylated peptide MIYASSK(ac)DAIKK (SEQ ID NO: 763) (Cofilin-1 [121], gene CFL1, drug:DMSO): 0.93 | light to heavy ratio (L/H ratio) of acetylated peptide AAEEVEAK(ac)FK (SEQ ID NO: 328) (Coiled-coil-helix-coiled-coil-helix domain-containing protein 3 mitochondrial [173], CHCHD3, drug:DMSO): 0.00 log 2 | light to heavy ratio (L/H ratio) of acetylated peptide ASEIGEK(ac)YR (SEQ ID NO: 586) (Conserved hypothetical protein [484], gene KIAA0947, inhibitor:DMSO): 0.44 log 2 | light to heavy ratio (L/H ratio) of acetylated peptide DHCVAHK(ac)LFNNLK (SEQ ID NO: 608) (Cytochrome b-c1 complex subunit 6 mitochondrial [85], gene UQCRH, inhibitor:DMSO): 0.46 log 2 | light to heavy ratio (L/H ratio) of acetylated peptide LFDYFPK(ac)PYPNSEAAR (SEQ ID NO: 548) (Cytochrome c1 heme protein mitochondrial [177], gene CYC1, inhibitor:DMSO): 0.39 log 2 | light to heavy ratio (L/H ratio) of acetylated peptide YFDEK(ac)IAK (SEQ ID NO: 563) (D-beta-hydroxybutyrate dehydrogenase mitochondrial [280], gene BDH1, inhibitor:DMSO): 0.41 log 2 | L/H ratio of acetylated peptide FK(ac)[…] (SEQ ID NO: 30) (DAZAP1 [59], log 2 scale, drug vs DMSO): 0.00 | L/H ratio of acetylated peptide APTIVGK(ac)SSLNPILFR (SEQ ID NO: 31) (DDOST [189], log 2 scale, drug vs DMSO): 0.00 | L/H ratio of acetylated peptide FGNPGEK(ac)LVK (SEQ ID NO: 34) (DDX5 [40], log 2 scale, drug vs DMSO): 0.00
